No end group written: not given here.
How the values were obtained:
[1] = tested on: HBV; assay: Anti-HBV effect in HepG2.2.15 or pHBV-1.2x-WT transfected HepG2 cells (HBsAg/HBeAg ELISA, Q-PCR, Southern blot); format: cell-based; details: for e antigen / s antigen: treated for 48 hr
Method: In this Experimental Example, HBV polymerase-derived peptides having anti-HBV effects were identified, and cell viability upon treatment thereof was analyzed. […] Then, quantitative PCR and ELISA were performed to examine virion replication and HBV surface antigen (HBsAg).
Chronic HBV infection is known to cause severe liver diseases such as cirrhosis and hepatocellular carcinoma, unlike acute infection. Therefore, it is important to develop anti-HBV drugs that overcome chronic infections. However, since the HBV genome is integrated into the host chromosome, the complete removal of the virus from human liver and serum remains a difficult problem. Therefore, in this Experimental Example, to evaluate the anti-viral effect of Poly6, HepG2.2.15 permanent cell line that continuously expresses HBV was treated with Poly6. Further, HepG2 cells were seeded in a 6-well plate, and then transiently transfected with pHBV-1.2×-WT. […] To measure secreted HBsAg and HBeAg in culture supernatants, HBsAg (BIOKIT) and HBeAg (AccuDiag) ELISA were performed according to experimental methods provided. For detection of 8-hydroxy-2′-deoxyguanosine (8-OHdG) activity, an 8-OHdG assay kit (OxiSelect Oxidative DNA Damage ELISA kit, Cell Biolabs) and ELISA were performed according to the manufacturer's protocol.
To measure extracellular virion secretion, Southern blot analysis was performed. In detail, before ultra-centrifugation at 4° C. and 24,000 rpm for 3 hr, cell debris was removed, and virions were precipitated from the supernatant using 8% PEG6000 (Sigma) on ice for 1 hr. Pellets were harvested with PBS, and HBV DNA was collected using a QIAamp DNA mini kit (QIAGEN) according to the manufacturers instructions. Viral DNA was measured using quantitative real-time PCR (Q-PCR). PCR amplification was performed using a QPCR primer set targeting a small surface gene, which is designed to amplify an a101-bp product (Table 2). Q-PCR was performed using a commercial SensiFAST SYBR Lo-ROX kit (BIOLINE) and an HBV Genesig standard kit (Primer design) to calibrate a viral load. In addition, to detect extracellular HBV DNA, supernatants were collected and HBV particles were precipitated using […] (Sigma) as described above. Virus pellets were collected from PBS and DNA was extracted with a lysis buffer (0.25% SDS, 250 mM Tris-HCl, pH 7.4 and 250 mM EDTA). Purified HBV DNA was separated on a 1% agarose gel, transferred to a nylon membrane (Hybond N+; Amersham) by Southern blotting, and hybridized with a 32P-labeled wild-type, full length HBV DNA probe. Analysis was performed using a random primer DNA labeling kit (TaKaRa). Autoradiography was performed and analyzed using a BAS 2500 image analyzer (Fuji Photo Film).

[2] = tested on: HIV-1; details: 10 μM, 2 days, HIV-1-infected MT-4 cells
Method: To evaluate anti-HIV-1 effects of the three polypeptides, cell-based anti-viral effects were analyzed. MT-4 cells (4×10^5 cells) were infected with HIV-1 (4×10^5 CCID50) for 1 hour. The MT-4 cells were obtained from NIH/AIDS Research and Reference Reagent Program. 293FT cells were transfected for 48 hr with HIV-1 using a pBR_HIV-1_M_NL4-3_IRES_eGFP vector (DS441) which co-expresses Nef and enhanced green fluorescence protein (eGFP) from a single bicistronic RNA, and Lipofectamine 2000 reagent (Life Technologies). A supernatant containing a viral precursor HIV-1 was harvested, and the viral titer was determined using p24 ELISA (ABL). For amplification of infectious HIV-1, MT-4 cells were infected with the viral precursor HIV-1 at a multiplicity of infection (MOI) of 0.5 for 72 hr. […]
In this regard, DMSO and AZT were purchased from Sigma-Aldrich. After 2 days of incubation, GFP images were obtained using a fluorescence microscope. The relative GFP intensity was determined using an ImageJ software program (National Institutes of Health) in pixels per area. […] Cell viability against the treated reagents was assessed by an MTT assay.
In detail, MT-4 cells were prepared at a density of 1×10^4 cells, and incubated with varying concentrations of Poly6 for 5 days. Cytotoxicity was determined using an MTT assay kit (Promega). […]

[3] = tested on: mitochondrial reactive oxygen species (mtROS); assay: Mitochondrial reactive oxygen species (MitoSox, flow cytometry) in HepG2 cells; format: cell-based, human; details: for production of reactive oxygen species (mtROS) by mitochondrial stress: HepG2 cells, 2 hr to 24 hr, compared with PBS, rotenone 0.5 μM
Method: After culturing the cells for an appropriate time, the cells were incubated with 5 μM of MitoSox (Molecular probes) at 37° C. for 30 min. For flow cytometry, cell pellets were re-suspended in FACS buffer (1% FBS and 1 mM EDTA in PBS) and fixed with 4% paraformaldehyde. To prevent mitochondrial dysfunction, 10 μM of MitoTempo (SigmaAldrich) was pretreated for 12 hr, and 0.5 μM of rotenone (SigmaAldrich) reagent was used as a positive control for ROS induction through mitochondrial stress.

[4] = tested on: IFN-I; assay: IFN-I related mRNA levels in HepG2-2.15 cells; format: cell-based, human; details: compared with PBS group
From the text: IFN-I is induced by host cells to regulate viral infection (Stetson & Medzhitov, 2006). Therefore, to examine the effect of Poly6 on IFN-I production in HepG2-2.15 cells and mouse liver, mRNA levels of IFN-β, RIG-I, and ISG15 were examined.
In addition, to measure IFN levels by indirectly using a luciferase reporter gene for IFN-I bioassay and neutralization analysis, hMH55-293-ISRE cells was used, into which interferon sensitive response element (ISRE) associated with the luciferase reporter gene was inserted at the 3′-end using 5 μg of puromycin (Sigma Aldrich). After collecting supernatants from cells treated with each reagent for 24 hr or 48 hr, the supernatants were added to hMH55-293-ISRE cells for 6 hr. After incubation, cells were washed with PBS, and lysed with a reporter lysis buffer (E1500, Promega) at room temperature for 30 min. A luciferase assay reagent (E1500, Promega) was added and luminescence was measured using a TECAN m200 reader (TECAN).
(§1) Through the combination treatment of entecavir, which is currently used as an HBV anti-viral agent having a mechanism whereby activity of HBV polymerase in the nucleus is inhibited and converted to a phosphorylated form, and Poly6, which was confirmed to increase IFN-I, its anti-HBV effect and synergistic effect of IFN-I increase were examined. HepG2-2.15 cells were incubated at a density of 5×10^5 cells/well on a 6-well culture plate for 24 hr, and treated with PBS, ETV, or Poly6 alone or in combination of two substances. After incubating the cells for 48 hr, supernatants were collected, and subjected to ELISA, qPCR, and LDH assay.
Meanwhile, to examine a synergistic effect of the combination treatment of two substances with respect to the increase level of IFN-I, mRNAs of single treatment groups and combination treatment groups were extracted, and IFN-α, IFN-β, and TNF-α expression levels were observed. […] In addition, IFN levels were indirectly measured using a luciferase reporter gene of hMH55-293-ISRE cell.

[5] = tested on: HBV; assay: Combination treatment of entecavir and Poly6 in HepG2-2.15 cells (ELISA, qPCR); format: cell-based; details: HepG2-2.15, 48 hr
Method: as §1

[6] = tested on: HepG2 cells; assay: Cell viability (MTS assay), HepG2; format: cell-based, human; details: up to 10 μM
Method: (§2) In detail, HepG2, HepG2.2.15, and HepG2-hNTCP-C4 cells (expressing NTCP receptors on the cell membrane) were plated in a 96 microplate (1×10^4 cells/well), and incubated for 5 days with increasing concentrations of ETV (30 nM) and Poly6. For an MTS assay, a cell-titer 96 aqueous one solution was directly added to each well, and the plate was incubated for 3 hr. The plate was read at 490 nm, and each analysis was repeated in triplicate.

[7] = tested on: HepG2.2.15 cells; details: up to 10 μM
Method: as §2

[8] = tested on: HepG2-hNTCP-C4 cells; details: up to 10 μM
Method: as §2

[9] = tested on: MT-4 cells; assay: Cytotoxicity assay (MTT) in MT-4 cells; details: up to 25 μM, 5 days
Method: Cell viability against the treated reagents was assessed by an MTT assay.
In detail, MT-4 cells were prepared at a density of 1×10^4 cells, and incubated with varying concentrations of Poly6 for 5 days. Cytotoxicity was determined using an MTT assay kit (Promega).

[10] = tested on: HIV-1; details: HIV-1-infected MT-4 cells, 5 days, dose-dependent manner
Method: In detail, MT-4 cells were prepared at a density of 1×10^4 cells, and incubated with varying concentrations of Poly6 for 5 days. Cytotoxicity was determined using an MTT assay kit (Promega). To analyze the anti-cytotoxic effect of Poly6 from cell death caused by cytotoxicity due to HIV-infection, MT-4 cells (1×10^4 cells) were infected with HIV-1 (1×10^4 CCID50), incubated for five days, and then subjected to cell viability assays. In addition, to determine HIV-1 titers in the supernatant, p24 ELISA was performed. […] Similar to AZT, cytopathic inhibitory effects of Poly6 on HIV-1-infected MT-4 cells were analyzed.

[11] = compared with PBS (combination vs each single treatment)

Molecule: GRLVF (Hepatitis B virus) [Poly5]
- e antigen [1]: reduced
- s antigen [1]: reduced
- virus production (HIV-1 titers by GFP imaging and p24 ELISA) [2]: reduced

Molecule: CC1(C)CC(NC(=O)C[P+](c2ccccc2)(c2ccccc2)c2ccccc2)CC(C)(C)N1[O] [MitoTEMPO]
- mitochondrial reactive oxygen species increased by rotenone and Poly6, after antioxidant treatment ([3]; MitoTempo 10 μM pretreated 12 hr): reduced again

Molecule: C=C1[C@H](CO)[C@@H](O)C[C@@H]1n1cnc2c(=O)[nH]c(N)nc21 [ETV, entecavir]
- viral replication levels (viral titers) ([1]; ETV 30 nM, Poly6 10 μM, 2 days): reduced by ETV, but there was no statistical significance
- extracellular virion secretion (Southern blot) ([1]; compared with PBS): clearly decreased
- production of reactive oxygen species (mtROS) by mitochondrial stress [3]: not observed
- mRNA level of IFN-β [4]: no statistical significance
- mRNA level of ISG15 [4]: no statistical significance
- mRNA level of RIG-I [4]: no statistical significance
- extracellular HBV DNA levels ([5]; compared with PBS (combination also vs single treatment)): statistically significantly reduced
- level of extracellular e antigen [5, 11]: no significant reduction effect
- level of extracellular s antigen [5, 11]: no significant reduction effect

Molecule: C=C(C)[C@H]1Cc2c(ccc3c2O[C@@H]2COc4cc(OC)c(OC)cc4[C@@H]2C3=O)O1 [rotenone]
- production of reactive oxygen species (mtROS) by mitochondrial stress [3]: significantly increased

Molecule: GRLVFQT (Hepatitis B virus) [Poly7]
- e antigen [1]: reduced
- s antigen [1]: reduced
- virus production (HIV-1 titers by GFP imaging and p24 ELISA) [2]: reduced

Molecule: GRLVFQ [Poly6, GRLVFQ]
- cytotoxic activity / cell viability, HepG2 [6]: did not exert significant cytotoxic activity
- cytotoxic activity / cell viability, HepG2.2.15 [7]: did not exert significant cytotoxic activity
- cytotoxic activity / cell viability, HepG2-hNTCP-C4 [8]: did not exert significant cytotoxic activity
- cytotoxic activity against MT-4 cells (MTT) [9]: did not exert significant cytotoxic activity

Molecule: Cc1cn([C@H]2C[C@H](N=[N+]=[N-])[C@@H](CO)O2)c(=O)[nH]c1=O [AZT, 3-azido-3-deoxythymidine]
- cell protective effect (cytopathic inhibitory effect) [10]: significant cell protective effect
